By pKi is commonly meant the negative decadic logarithm of the Ki, by convention in mol/L. High values mean a low Ki, low ones a high Ki. The term pIC50 denotes the negative decadic logarithm of the IC50, by convention in mol/L. Read a low pIC50 as a large IC50.

pIC50, pKi: −log10 of the molar value.

For the assay, the target named is GCN2 kinase (Homo sapiens, UniProt Q9P2K8). In words: GCN2 enzyme inhibition assay (Transcreener ADP2 fluorescence polarization). Conditions: 280 μM ATP. The assay is classed as biochemical. The procedure, abridged:
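Run at 25 °C in 25 mM Tris-HCl pH 7.5, 50 mM NaCl, 10 mM MgCl2, 1 mM DTT with 4 nM GCN2, 280 μM ATP and 200 μM (RS)7 peptide; compound (0–8 μM final) preincubated 10 min, reaction 1 h. ADP read by antibody/tracer FP; IC50 and Ki(app) from tight-binding fit.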
(Fluorescence polarisation rises when a labelled molecule tumbles more slowly, as on binding a larger partner.)

Setting [1] is: compounds of Formula II, 4 nM GCN2 kinase.
Setting [2] is: compounds of Formula III, 4 nM GCN2 kinase.
The mark [3] stands for this setting: Enzyme activity for compounds of Formula IV, Ki(app), 25° C.

Chain of GCN2 kinase (Q9P2K8 whole entry): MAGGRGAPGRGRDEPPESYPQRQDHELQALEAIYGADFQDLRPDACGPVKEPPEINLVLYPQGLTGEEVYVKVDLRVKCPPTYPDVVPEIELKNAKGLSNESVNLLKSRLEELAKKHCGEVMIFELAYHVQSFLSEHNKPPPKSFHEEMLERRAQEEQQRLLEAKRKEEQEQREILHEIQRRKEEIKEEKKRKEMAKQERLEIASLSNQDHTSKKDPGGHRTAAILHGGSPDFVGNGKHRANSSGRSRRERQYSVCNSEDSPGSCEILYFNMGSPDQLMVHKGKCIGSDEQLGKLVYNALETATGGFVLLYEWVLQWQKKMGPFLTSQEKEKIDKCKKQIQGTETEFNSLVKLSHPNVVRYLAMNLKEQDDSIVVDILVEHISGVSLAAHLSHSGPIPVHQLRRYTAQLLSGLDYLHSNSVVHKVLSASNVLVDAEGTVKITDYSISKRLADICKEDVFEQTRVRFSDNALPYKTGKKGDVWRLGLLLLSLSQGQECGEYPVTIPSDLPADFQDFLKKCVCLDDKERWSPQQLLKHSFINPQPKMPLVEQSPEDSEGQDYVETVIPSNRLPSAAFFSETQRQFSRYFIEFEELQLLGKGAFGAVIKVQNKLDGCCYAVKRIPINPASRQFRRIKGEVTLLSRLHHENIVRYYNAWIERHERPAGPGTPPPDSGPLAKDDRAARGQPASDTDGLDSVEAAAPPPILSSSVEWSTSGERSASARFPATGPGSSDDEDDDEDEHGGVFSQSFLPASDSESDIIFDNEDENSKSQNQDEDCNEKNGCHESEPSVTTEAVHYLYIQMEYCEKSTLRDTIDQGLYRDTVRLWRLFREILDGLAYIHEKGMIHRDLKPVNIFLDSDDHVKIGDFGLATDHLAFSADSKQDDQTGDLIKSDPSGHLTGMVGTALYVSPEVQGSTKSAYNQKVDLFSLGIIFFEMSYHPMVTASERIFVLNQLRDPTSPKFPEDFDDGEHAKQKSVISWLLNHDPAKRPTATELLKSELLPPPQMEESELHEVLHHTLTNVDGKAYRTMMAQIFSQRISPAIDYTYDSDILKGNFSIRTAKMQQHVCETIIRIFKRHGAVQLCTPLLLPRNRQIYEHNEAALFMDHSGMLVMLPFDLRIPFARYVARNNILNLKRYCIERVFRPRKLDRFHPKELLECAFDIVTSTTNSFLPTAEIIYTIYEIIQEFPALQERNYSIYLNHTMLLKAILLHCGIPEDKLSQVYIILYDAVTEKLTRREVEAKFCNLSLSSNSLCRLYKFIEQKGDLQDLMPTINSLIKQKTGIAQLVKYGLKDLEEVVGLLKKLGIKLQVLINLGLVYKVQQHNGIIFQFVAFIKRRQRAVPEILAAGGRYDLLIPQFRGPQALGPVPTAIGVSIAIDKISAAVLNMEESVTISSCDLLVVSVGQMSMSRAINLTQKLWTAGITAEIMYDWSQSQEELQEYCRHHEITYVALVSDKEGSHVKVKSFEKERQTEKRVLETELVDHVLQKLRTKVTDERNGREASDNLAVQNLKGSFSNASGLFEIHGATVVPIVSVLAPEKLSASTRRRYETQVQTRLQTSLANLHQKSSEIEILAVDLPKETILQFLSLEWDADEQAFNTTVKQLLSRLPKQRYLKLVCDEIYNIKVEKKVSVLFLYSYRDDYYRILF

In the case of `Cc1noc([C@H]2CN(c3cc(-c4cnc5ccc(C(F)(F)F)nn45)ccn3)C[C@@H](C)O2)n1` [II-744], the pKi under setting [1] is 6.00 to 8.00.
Still for that read-out and setting: with `Cc1noc([C@@H]2CN(c3cc(-c4cnc5ccc(C(F)(F)F)nn45)ccn3)C[C@H](C)O2)n1` [II-745] the figure was 6.00 to 8.00.
On the same count and under the same terms, the same measure for `FC(F)(F)c1ccc2ncc(-c3ccnc(N4CCCC(c5ncc[nH]5)C4)c3)n2n1` (stereo not drawn) [II-746]: 6.00 to 8.00.
On the same count and under the same terms, with `Cc1nnc([C@@H]2CN(c3cc(-c4cnc5ccc(C(F)(F)F)nn45)ccn3)C[C@H](C)O2)o1` [II-747] the figure was 6.00 to 8.00; with `Cc1noc([C@@H]2CN(c3cc(-c4cnc5ccc(C(F)F)nn45)ccn3)C[C@H](C)O2)n1` [II-748], 6.00 to 8.00.
For the molecule `FC(F)c1ccc2ncc(-c3ccnc(N4CCCC(c5c[nH]cn5)C4)c3)n2n1` (stereo not drawn) [II-749], the pKi under setting [1] is 6.00 to 8.00.
Same read-out and setting: with `FC(F)c1ccc2ncc(-c3ccnc(N4CCCC(c5cn[nH]c5)C4)c3)n2n1` (stereo not drawn) [II-750] the figure was > 8.00.
On to `C[C@H]1[C@H](CNS(C)(=O)=O)CCCN1c1cc(-c2cnc3ccc(C(F)F)nn23)ncn1` [II-756, N-(((2S,3S)-1-(6-(6-(difluoromethyl)imidazo[1,2-b]pyridazin-3-yl)pyrimidin-4-yl)-2-methylpiperidin-3-yl)methyl)methanesulfonamide], for which, under setting [1], the pIC50 is < 6.00.
Same read-out and setting: with `Cc1nn(C)cc1[C@H]1CN(c2cc(-c3cnc4ccc(C(F)(F)F)nn34)ncn2)C[C@H](C)O1` [II-758, (2S,6S)-2-(1,3-dimethyl-1H-pyrazol-4-yl)-6-methyl-4-(6-(6-(trifluoromethyl)imidazo[1,2-b]pyridazin-3-yl)pyrimidin-4-yl)morpholine] the figure was < 6.00; with `C[C@@H]1C[C@H](N=S(C)(C)=O)CN(c2cc(-c3cnc4ccc(N5CC(F)C5)nn34)ncn2)C1` [II-764, (((3S,5R)-1-(6-(6-(3-fluoroazetidin-1-yl)imidazo[1,2-b]pyridazin-3-yl)pyrimidin-4-yl)-5-methylpiperidin-3-yl)imino)dimethyl-16-sulfanone], 6.00 to 8.00.
Consider `CC1C(CNS(C)(=O)=O)C(F)(F)C(C)CN1c1cc(-c2cnn3ccc(C(F)F)nc23)ncn1` (stereo not drawn) [III-13, N-[[1-[6-[5-(Difluoromethyl)pyrazolo[1,5-a]pyrimidin-3-yl]pyrimidin-4-yl]-4,4-difluoro-2,5-dimethyl-3-piperidyl]methyl]methanesulfonamide], for which the pKi under setting [2] was > 8.00.
As to `CC1CC(N=S(C)(C)=O)CN(c2cc(-c3cnn4ccc(C(F)F)nc34)ncn2)C1` (stereo not drawn) [III-14, [1-[6-[5-(Difluoromethyl)pyrazolo[1,5-a]pyrimidin-3-yl]pyrimidin-4-yl]-5-methyl-3-piperidyl]imino-dimethyl-oxo-6-sulfane], under setting [2], the pKi is 6.00 to 8.00.
Consider `c1ccc(-c2cc(-c3cnn4cccnc34)ccn2)cc1` [III-15, 3-(2-phenylpyridin-4-yl)pyrazolo[1,5-a]pyrimidine], for which, under setting [2], the pKi is < 6.00.
Consider `c1cc(-c2ccc3cc[nH]c3c2)nc(-c2cnc3cnccn23)c1` [IV-1, 3-(6-(1H-Indol-6-yl)pyridin-2-yl)imidazo[1,2-a]pyrazine], for which the pKi under setting [3] is 6.00 to 7.00.
As to `CC(=O)N1CCN(c2ccnc(-c3cnc4cnc(C#N)cn34)n2)CC1` [IV-31, 3-(4-(4-Acetylpiperazin-1-yl)pyrimidin-2-yl)imidazo[1,2-a]pyrazine-6-carbonitrile], the pKi under setting [3] was 6.00 to 7.00.
Consider `Cc1cn2c(-c3nccc(N4CCO[C@H](CNS(C)(=O)=O)C4)n3)cnc2cn1` [IV-47, (S)—N-((4-(2-(6-Methylimidazo[1,2-a]pyrazin-3-yl)pyrimidin-4-yl)morpholin-2-yl)methyl)methanesulfonamide], for which, under setting [3], the pKi is 6.00 to 7.00.
On the same count and under the same terms, with `CS(=O)(=O)NCC1CCN(c2ccnc(-c3cnc4cnc(C(F)F)cn34)n2)C1` (stereo not drawn) [IV-66, N-((1-(2-(6-(Difluoromethyl)imidazo[1,2-a]pyrazin-3-yl)pyrimidin-4-yl)pyrrolidin-3-yl)methyl)methanesulfonamide] the figure was 6.00 to 7.00; with `CS(=N)(=O)c1cccc(-c2ccnc(-c3cnc4cnc(C(F)F)cn34)n2)c1` (stereo not drawn) [IV-79, (3-(2-(6-(difluoromethyl)imidazo[1,2-a]pyrazin-3-yl)pyrimidin-4-yl)phenyl)(imino)(methyl)-λ^6-sulfanone], 6.00 to 7.00.
Still for that read-out and setting: the same measure for `[O-][S+]1CCN(c2ccnc(-c3cnc4cnc(C(F)F)cn34)n2)CC1` [IV-80, 4-(2-(6-(Difluoromethyl)imidazo[1,2-a]pyrazin-3-yl)pyrimidin-4-yl)thiomorpholine 1-oxide]: 6.00 to 7.00; for `O=S1(=O)CCN(c2ccnc(-c3cnc4cnc(C(F)F)cn34)n2)CC1` [IV-84, 4-(2-(6-(Difluoromethyl)imidazo[1,2-a]pyrazin-3-yl)pyrimidin-4-yl)thiomorpholine 1,1-dioxide]: 6.00 to 7.00; for `CC1C(NS(C)(=O)=O)CCCN1c1ccnc(-c2cnc3cnc(C(F)F)cn23)n1` (stereo not drawn) [IV-127, N-(1-(2-(6-(Difluoromethyl)imidazo[1,2-a]pyrazin-3-yl)pyrimidin-4-yl)-2-methylpiperidin-3-yl)methanesulfonamide]: 6.00 to 7.00.
Still for that read-out and setting: the same measure for `CC(C)(C)OC(=O)N1CCC2(CC1)CCN(c1ccnc(-c3cnc4cnc(C(F)F)cn34)n1)C2` [IV-133, tert-Butyl 2-(2-(6-(difluoromethyl)imidazo[1,2-a]pyrazin-3-yl)pyrimidin-4-yl)-2,8-diazaspiro[4.5]decane-8-carboxylate]: 6.00 to 7.00.
`FC(F)c1cn2c(-c3nccc(-c4cccc(N5CCNCC5)n4)n3)cnc2cn1` [IV-149, 6-(Difluoromethyl)-3-(4-(6-(piperazin-1-yl)pyridin-2-yl)pyrimidin-2-yl)imidazo[1,2-a]pyrazine] showed a pKi under setting [3] of 6.00 to 7.00.
`CS(=O)(=O)N1CCN(c2cccc(-c3ccnc(-c4cnc5cnc(C(F)F)cn45)n3)n2)CC1` [IV-151, 6-(Difluoromethyl)-3-(4-(6-(4-(methylsulfonyl)piperazin-1-yl)pyridin-2-yl)pyrimidin-2-yl)imidazo[1,2-a]pyrazine]: the pKi under setting [3] was 6.00 to 7.00.
The same measure, in the same setting: with `FC(F)c1cn2c(-c3nccc(-c4cnn(C5CCOC5)c4)n3)cnc2cn1` (stereo not drawn) [IV-153, 6-(Difluoromethyl)-3-(4-(1-(tetrahydrofuran-3-yl)-1H-pyrazol-4-yl)pyrimidin-2-yl)imidazo[1,2-a]pyrazine] the figure was 6.00 to 7.00.
Same read-out and setting: with `Cn1ccc2cc(-c3ccnc(-c4cnc5cnc(C(F)F)cn45)n3)ccc21` [IV-158, 6-(Difluoromethyl)-3-(4-(1-methyl-1H-indol-5-yl)pyrimidin-2-yl)imidazo[1,2-a]pyrazine] the figure was 6.00 to 7.00.
The molecule `FC(F)c1cn2c(-c3nccc(C4=CCCC4)n3)cnc2cn1` [IV-163, 3-(4-(Cyclopent-1-en-1-yl)pyrimidin-2-yl)-6-(difluoromethyl)imidazo[1,2-a]pyrazine] showed a pKi under setting [3] of 6.00 to 7.00.
The same measure, in the same setting: with `CS(=O)(=O)NCC(=O)Nc1cccc(-c2ccnc(-c3cnc4cnc(C(F)F)cn34)n2)c1` [IV-173, N-(3-(2-(6-(Difluoromethyl)imidazo[1,2-a]pyrazin-3-yl)pyrimidin-4-yl)phenyl)-2-(methylsulfonamido)acetamide] the figure was 6.00 to 7.00; with `CC1CCCN(c2ccnc(-c3cnc4cnc(C(N)=O)cn34)n2)C1` (stereo not drawn) [IV-187, 3-(4-(3-Methylpiperidin-1-yl)pyrimidin-2-yl)imidazo[1,2-a]pyrazine-6-carboxamide], 7.00 to 8.00.
On the same count and under the same terms, the same measure for `CC(=O)N1CCN(c2nc(C)cc(-c3cnc4cnc(C(N)=O)cn34)n2)CC1` [IV-188, 3-(2-(4-Acetylpiperazin-1-yl)-6-methylpyrimidin-4-yl)imidazo[1,2-a]pyrazine-6-carboxamide]: 6.00 to 7.00; for `CC(=O)N1CCCN(c2ccnc(-c3cnc4cnc(C(N)=O)cn34)n2)CC1` [IV-190, 3-(4-(4-Acetyl-1,4-diazepan-1-yl)pyrimidin-2-yl)imidazo[1,2-a]pyrazine-6-carboxamide]: 6.00 to 7.00.
Same read-out and setting: with `Cc1cc(N2CCN(C(N)=O)CC2)nc(-c2cnc3cnc(C(N)=O)cn23)n1` [IV-196, 3-(4-(4-Carbamoylpiperazin-1-yl)-6-methylpyrimidin-2-yl)imidazo[1,2-a]pyrazine-6-carboxamide] the figure was 7.00 to 8.00; with `CC(=O)N1CCN(c2ccnc(-c3cnc4cnc(-c5cc[nH]n5)cn34)n2)CC1` [IV-203, 1-(4-(2-(6-(1H-Pyrazol-3-yl)imidazo[1,2-a]pyrazin-3-yl)pyrimidin-4-yl)piperazin-1-yl)ethan-1-one], 7.00 to 8.00; with `CC1CCCN(c2cccc(-c3cnc4cnc(C(N)=O)cn34)n2)C1` (stereo not drawn) [IV-205, 3-(6-(3-Methylpiperidin-1-yl)pyridin-2-yl)imidazo[1,2-a]pyrazine-6-carboxamide], 7.00 to 8.00.
In the case of `CN1CCN(c2cccc(-c3cnc4cnc(C(N)=O)cn34)n2)CC1` [IV-212, 3-(6-(4-Methylpiperazin-1-yl)pyridin-2-yl)imidazo[1,2-a]pyrazine-6-carboxamide], the negative-log Ki (pKi) under setting [3] is 6.00 to 7.00.
Same read-out and setting: with `CC1C(c2cn[nH]c2)OCCN1c1ccnc(-c2cnc3cnc(C(F)(F)F)cn23)n1` (stereo not drawn) [IV-218, 3-Methyl-2-(1H-pyrazol-4-yl)-4-(2-(6-(trifluoromethyl)imidazo[1,2-a]pyrazin-3-yl)pyrimidin-4-yl)morpholine] the figure was 7.00 to 8.00; with `NC(=O)c1cn2c(-c3cccc(N4CCC(O)CC4)n3)cnc2cn1` [IV-219, 3-(6-(4-Hydroxypiperidin-1-yl)pyridin-2-yl)imidazo[1,2-a]pyrazine-6-carboxamide], 7.00 to 8.00.
On the same count and under the same terms, the same measure for `NC(=O)c1cn2c(-c3cccc(N4CCCC(CO)C4)n3)cnc2cn1` (stereo not drawn) [IV-220, 3-(6-(3-(Hydroxymethyl)piperidin-1-yl)pyridin-2-yl)imidazo[1,2-a]pyrazine-6-carboxamide]: 7.00 to 8.00; for `NC(=O)c1cn2c(-c3cccc(N4CCC(CO)CC4)n3)cnc2cn1` [IV-221, 3-(6-(4-(Hydroxymethyl)piperidin-1-yl)pyridin-2-yl)imidazo[1,2-a]pyrazine-6-carboxamide]: 7.00 to 8.00.

The record behind these values is patent US10988477B2 (Merck Patent GmbH, priority 2018, dated 2021).
